Literature values as cited in patent US20100069356A1, “DIBENZO[…] DOPAMINE, ALPHA […], AND SEROTONIN RECEPTORS” (AUSPEX PHARMACEUTICALS, INC., priority 2008, published 2010).

Settings: in vivo

half-life: ~6 h
Structure (SMILES): OCCOCCN1CCN(C2=Nc3ccccc3Sc3ccccc32)CC1 [Quetiapine, 2-(2-(4-dibenzo[b,f][1,4]thiazepine-11-yl-1-piperazinyl)ethoxy)ethanol]
